Data set [1] relates to Mus musculus. Briefly: Increase in human F9 nonsense R338X mutant antigen level per 100 ul of plasma in C57B/6J mouse model at 7 mg/kg, sc administered daily for 2 days after 2 hrs by ELISA. The format is functional. To be noted: route subcutaneous. Background: ELISA stands for enzyme-linked immunosorbent assay.
The test system of data set [2] is Mus musculus. Briefly: Increase in human F9 nonsense R338X mutant antigen coagulant activity in C57B/6J mouse plasma at 7 mg/kg, sc administered daily for 2 days after 2 hrs. It is filed as functional. As to conditions: route subcutaneous.
Data set [3] concerns Mus musculus. Briefly: Increase in human F9 nonsense R338X mutant antigen level per 100 ul of plasma in C57B/6J mouse model at 14 mg/kg, sc administered daily for 2 days after 2 hrs by ELISA. The format is functional. As to conditions: route subcutaneous.
In data set [4] the test system is Mus musculus. Briefly: Increase in human F9 nonsense R338X mutant antigen coagulant activity in C57B/6J mouse plasma at 14 mg/kg, sc administered daily for 2 days after 2 hrs. It is filed as functional. As to conditions: route subcutaneous.
In data set [5] the test system is Mus musculus. Briefly: Increase in human F9 nonsense R338X mutant antigen level per 100 ul of plasma in C57B/6J mouse model at 28 mg/kg, sc administered daily for 2 days after 2 hrs by ELISA. As to conditions: route subcutaneous. The format is functional.
Data set [6] has as its system Mus musculus. In words: Increase in human F9 nonsense R338X mutant antigen coagulant activity in C57B/6J mouse plasma at 28 mg/kg, sc administered daily for 2 days after 2 hrs. It is filed as functional. To be noted: route subcutaneous.
In data set [7] the test system is Mus musculus. Briefly: Increase in human F9 nonsense R338X mutant antigen level per 100 ul of plasma in C57B/6J mouse model at 28 mg/kg, sc administered daily for 2 days after 9 hrs by ELISA. The format is functional. To be noted: route subcutaneous.
Data set [8] deals with Mus musculus. Briefly: Increase in human F9 nonsense R338X mutant antigen coagulant activity in C57B/6J mouse plasma at 28 mg/kg, sc administered daily for 2 days after 9 hrs. The format is functional. As to conditions: route subcutaneous.
The subject of data set [9] is Mus musculus. Briefly: Increase in human F9 nonsense R338X mutant antigen level per 100 ul of plasma in C57B/6J mouse model at 42 mg/kg, sc administered daily for 2 days after 9 hrs by ELISA. As to conditions: route subcutaneous. It is filed as functional.
Data set [10] relates to Mus musculus. In words: Increase in human F9 nonsense R338X mutant antigen coagulant activity in C57B/6J mouse plasma at 42 mg/kg, sc administered daily for 2 days after 9 hrs. As to conditions: route subcutaneous. The format is functional.
The test system of data set [11] is Mus musculus. In words: Increase in human F9 nonsense R338X mutant antigen coagulant activity in C57B/6J mouse plasma at 28 mg/kg, sc administered daily for 7 days after 9 hrs by ELISA. The format is functional. As to conditions: route subcutaneous.
Data set [12] can be described thus: Half life in C57BL/6J hemophilia B mouse model at 28 mg/kg, sc for 2 days. It is filed as ADME, organism-based. Also noted: dose 28 mg/kg, route subcutaneous. As to conditions: in vivo.
The nature of data set [13]: Elimination half life in C57BL/6J hemophilia B mouse model liver at 28 mg/kg, sc for 2 days. It is filed as ADME, organism-based. Also noted: dose 28 mg/kg, route subcutaneous.
A short description of data set [14]: Toxicity in C57BL/6J hemophilia B mouse model at 28 mg/kg, sc. It is filed as organism-based. As to conditions: in vivo. Further details: dose 28 mg/kg, route subcutaneous.
For data set [15], the system named is Mus musculus. Briefly: Increase in human F9 nonsense R338X mutant antigen coagulant activity in C57B/6J mouse plasma at 28 mg/kg, sc administered daily for 7 days after 3 hrs by ELISA. As to conditions: route subcutaneous.
Data set [16] relates to Mus musculus. Briefly: Increase in human F9 nonsense R338X mutant antigen coagulant activity in C57B/6J mouse plasma at 28 mg/kg, sc administered daily for 7 days after 9 hrs by ELISA.

SMILES strings stand for the structures. Activity calls are given as the source filed them. The rule behind the calls is not given here.

The term half-life denotes how long it takes for the measured level to halve. A word on the LD50: it is the dose at which mortality reaches 50%. For `CN[C@@H]1[C@@H](O)[C@@H](O[C@@H]2[C@@H](O)[C@H](O[C@H]3O[C@H]([C@@H](C)O)[C@@H](O)[C@H](O)[C@H]3N)[C@@H](N)C[C@H]2N)OC[C@]1(C)O` [GENETICIN], the Activity in the data set on Mus musculus [1] is given as 2.28 ng; with Mus musculus [2], 4.55%; in the data set on Mus musculus [3] it was 5.79 ng; in the data set on Mus musculus [4], 6.18%; in the data set on Mus musculus [5], 8.75 ng; in the data set with Mus musculus [6] it was 6.94%. Besides, the Activity with Mus musculus [7] came out at 27.28 ng; with Mus musculus [8] it was 8.03%; in the data set on Mus musculus [9], 13.57 ng; in the data set with Mus musculus [10] it was 4.98%; with Mus musculus [11] it was 43.9 ng; in the data set with Mus musculus [15], 22.8 ng. In addition, the half-life in data set [12] is 0.25 h; in data set [13], 80 h. The same molecule returned a 50% lethal dose (LD50) in data set [14] of 1300 mg/kg. Further, the result in the data set with Mus musculus [16] was Active.
